Test results published in patent US20250050042A1, “DRY POWDER FORMULATIONS FILLED IN AN INHALER WITH IMPROVED RESISTANCE TO HUMIDITY” (CHIESI FARMACEUTICI S.P.A., priority 2021, published 2025).
Counter-ions that a name gives are not always drawn.

Experiments:
[1] = Aerosol performance by Next Generation Impactor (Example 4); assay type: physicochemical; set-up: MDD: unit not given beside the values; conditions: mean; for FPM: particles equal to or lower than 5.0 micron
[2] = In-use stability of aerosol performance (FPM drop, NGI) on storage at 30° C. and 75% relative humidity; assay type: physicochemical; conditions: in use at 30° C./75%
[3] = Sample A (coarse lactose batch A)
[4] = Sample A (coarse lactose batch A, tapped density 0.72)
[5] = Sample B (coarse lactose batch B)
[6] = Sample B (coarse lactose batch B, tapped density 0.69)
[7] = second block of Table 1 without sub-heading (co-micronization formulation), T = 0 + 1 M
[8] = second block of Table 1 without sub-heading (co-micronization formulation), T = 0 + 2 M
[9] = second block of Table 1 without sub-heading (co-micronization formulation), T = 0 + 3 M
[10] = simple mixing process formulation, T = 0 + 1 M, mean values
[11] = simple mixing process formulation, T = 0 + 1.5 M, mean values
[12] = simple mixing process formulation, T = 0 + 2 M, mean values
[13] = simple mixing process formulation, T = 0 + 3 M, mean values

DD [1, 3] | FPF [1, 3] [%] | MDD [1, 3] | FPM [1, 4] | DD [1, 5] | FPF [1, 5] [%] | MDD [1, 5] | FPM [1, 6] | FPM drop (%) [2, 7] [%] | FPM drop (%) [2, 8] [%] | FPM drop (%) [2, 9] [%] | FPM drop (%) [2, 10] [%] | FPM drop (%) [2, 11] [%] | FPM drop (%) [2, 12] [%] | FPM drop (%) [2, 13] [%] | Structure (SMILES)
90.4 | 45 | 92.4 | 41.6 | 88.6 | 33.4 | 88.5 | 29.5 | −10.4 | −20.3 | −19.6 | −22.1 | −30.5 | −26.3 | −30.2 | CCC(=O)OCC(=O)[C@@]1(OC(=O)CC)[C@@H](C)C[C@H]2[C@@H]3CCC4=CC(=O)C=C[C@]4(C)[C@@]3(Cl)[C@@H](O)C[C@@]21C [BDP, (8S,9R,10S,11S,13S,14S,16S,17R)-9-chloro-11-hydroxy-10,13,16-trimethyl-3-oxo-17-[2-(propionyloxy)acetyl]-6,7,8,9,10,11,12,13,14,15,16,17-dodecahydro-3H-cyclopenta[a]phenanthren-17-yl propionate]
11.4 | 41.3 | 11.7 | 4.8 | 11.0 | 30.9 | 11.1 | 3.4 | −7.8 | −19.1 | −20.7 | −24.5 | −36.5 | −29.5 | −33.1 | C[N+]1(C)CCC(OC(=O)C(O)(c2ccccc2)C2CCCC2)C1 (centres unmarked) [GB, glycopyrronium bromide]

Structure (SMILES) | DD [1, 3] | FPF [1, 3] [%] | MDD [1, 3] | FPM [1, 4] | DD [1, 5] | FPF [1, 5] [%] | MDD [1, 5] | FPM [1, 6] | FPM drop (%) [2, 7] [%] | FPM drop (%) [2, 8] [%] | FPM drop (%) [2, 9] [%] | FPM drop (%) [2, 10] [%] | FPM drop (%) [2, 11] [%] | FPM drop (%) [2, 12] [%] | FPM drop (%) [2, 13] [%]
COc1ccc(CC(C)NCC(O)c2ccc(O)c(NC=O)c2)cc1 (centres unmarked) [FF, formoterol fumarate dihydrate] | 5.6 | 48.4 | 5.6 | 2.7 | 5.4 | 36.8 | 5.4 | 2.0 |  |  |  |  |  |  | 
